Reference: patent US8466089B2, “Pyrazole compounds, process for their production and herbicides containing them” (Ishihara Sangyo Kaisha, Ltd., priority 2008, dated 2013)

Key:
Assay type in all cases: in vivo
[1] = tested on: green foxtail (Setaria viridis L.); assay: Test Example 5, foliar treatment versus Reference Compounds; conditions: 5.0 to 5.5 leaf stage, 18th day after application, read-out: Growth inhibition rate (%) (18th day after application) Green foxtail
Description: (§1) Upland field soil was put into a 1/1,000,000 hectare pot, and seeds of various plants were sown. When the respective plants reached predetermined leaf stage ((1) velvetleaf (Abutilon theophrasti MEDIC.): 3.0 to 3.5 leaf stage, (2) giant foxtail (Setaria faberi Herrm.): 4.0 to 4.5 leaf stage, (3) green foxtail (Setaria viridis L.): 5.0 to 5.5 leaf stage, and (4) corn (Zea mays L.): 4.0 to 4.3 leaf stage, a wettable powder of compound No. 2-1 of the above-mentioned present invention, a wettable powder of the above-mentioned Reference Compound 1 and a wettable powder of the above-mentioned Reference Compound 2, prepared in accordance with a conventional preparation method, were weighed so that the active ingredients became the prescribed amounts, and diluted with water in an amount corresponding to 300 liter per 1 hectare (containing 0.5 vol % of an agricultural spreader (Destiny HC: WINFIELD SOLUTIONS by LLC). The spray solutions thus prepared were applied for foliar treatment by a small sprayer.
(§2) On the 7th to 20th day after application, the state of growth of the respective plants was visually observed, and the herbicidal effect was evaluated by a growth inhibition rate (%) of 0 (equivalent to the non-treated area) to 100% (complete kill).

[2] = tested on: giant foxtail (Setaria faberi Herrm.); assay: as above; conditions: 4.0 to 4.5 leaf stage, 20th day after application, read-out: Growth inhibition rate (%) (20th day after application) Giant foxtail
Description: as §1, §2

corn (Zea mays L.) [3] = assay: as above; conditions: 4.0 to 4.3 leaf stage, 7th day after application, read-out: Growth inhibition rate (%) (7th day after application) Corn
Description: as §1, §2

[4] = tested on: velvetleaf (Abutilon theophrasti MEDIC.); assay: as above; conditions: 3.0 to 3.5 leaf stage, 20th day after application, read-out: Growth inhibition rate (%) (20th day after application) Velvet leaf
Description: as §1, §2

[5] = tested on: velvetleaf (Abutilon theophrasti MEDIC.), guineagrass (Panicum maximum Jacq.), green foxtail (Setaria viridis L.); assay: Test Example 4, foliar treatment, herbicidal effect versus Reference Compounds; conditions: 3.5 to 15 g/ha, 14th to 28th day after application, test written in present tense
Description: Upland field soil is put into a 1/1,000,000 hectare pot, and seeds of various plants are sown. When the respective plants reach predetermined leaf stage ((1) velvetleaf (Abutilon theophrasti MEDIC.), (2) guineagrass (Panicum maximum Jacq.), (3) green foxtail (Setaria viridis L.), and (4) corn (Zea mays L.), a wettable powder of compound No. 2-1 of the above-mentioned present invention, an emulsifiable concentrate of the following Reference Compound 1 and a wettable powder of the following Reference Compound 2, prepared in accordance with a conventional preparation method, are weighed so that the active ingredients become the prescribed amounts 3.5 to 15 g/ha, and diluted with water in an amount corresponding to 300 liter per 1 hectare (containing 0.5 vol % of an agricultural spreader (MSO concentrate, manufactured by Cognis Corporation). The spray solutions thus prepared are applied for foliar treatment by a small sprayer.

[6] = tested on: redroot pigweed (Amaranthus retroflexus L.); assay: Test Example 1, foliar treatment in upland pots; conditions: 20th to 22nd day after application, visual, read-out: Growth inhibition rate (%) Redroot pigweed
[7] = tested on: soybean (Glycine max Merr.); assay: Test Example 1, foliar treatment in upland pots; conditions: 20th to 22nd day after application, visual, read-out: Growth inhibition rate (%) Soybean
Outline: (§3)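 Sow seeds in upland field soil; grow to set leaf stage (soybean primary leaf–0.3, corn 2.0–3.3, green foxtail 1.5–3.0, rice 1.2–2.5); spray foliage with formulation diluted to 500 L/ha water containing 0.1 vol% spreader at prescribed a.i. rate; score inhibition % at days 20–22.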

[8] = tested on: green foxtail (Setaria viridis L.); assay: Test Example 1, foliar treatment in upland pots; conditions: 20th to 22nd day after application, visual, read-out: Growth inhibition rate (%) Green foxtail
Outline: as §3

rice (Oryza sativa L.) = assay: Test Example 1, foliar treatment in upland pots; conditions: 20th to 22nd day after application, visual, read-out: Growth inhibition rate (%) Rice
Outline: as §3

[9] = tested on: crabgrass (Digitaria sanguinalis L.); assay: Test Example 1, foliar treatment in upland pots; conditions: 20th to 22nd day after application, visual, read-out: Growth inhibition rate (%) Crabgrass
wheat (Triticum spp.) = assay: Test Example 1, foliar treatment in upland pots; conditions: 20th to 22nd day after application, visual, read-out: Growth inhibition rate (%) Wheat
corn (Zea mays L.) [10] = assay: Test Example 1, foliar treatment in upland pots; conditions: 20th to 22nd day after application, visual, read-out: Growth inhibition rate (%) Corn
Outline: as §3

[11] = tested on: barnyardgrass (Echinochloa crus-galli L.); assay: Test Example 1, foliar treatment in upland pots; conditions: 20th to 22nd day after application, visual, read-out: Growth inhibition rate (%) Barnyardgrass
[12] = tested on: velvetleaf (Abutilon theophrasti MEDIC.); assay: Test Example 1, foliar treatment in upland pots; conditions: 20th to 22nd day after application, visual, read-out: Growth inhibition rate (%) Velvetleaf
[13] = tested on: prickly sida (Sida spinosa L.); assay: Test Example 1, foliar treatment in upland pots; conditions: 20th to 22nd day after application, visual, read-out: Growth inhibition rate (%) Prickly sida

SMILES: CCn1ncc(C(=O)c2ccc(S(C)(=O)=O)c(OCCOC)c2C)c1OC(C)OC(=O)OC (stereo not drawn) [Compound No. 2-1, 1-(1-Ethyl-4-(3-(2-methoxyethoxy)-2-methyl-4-(methylsulfonyl)benzoyl)-1H-pyrazol-5-yloxy)ethyl methyl carbonate]
- inhibition at 7 g/ha [1]: 70%
- inhibition at 3.5 g/ha [2]: 83%
- inhibition at 90 g/ha (corn (Zea mays L.) [3]): 0%
- inhibition at 3.5 g/ha [4]: 80%
- herbicidal effect as compared to Reference Compounds [5]: superior herbicidal effects
- inhibition at 7 g/ha [6]: 90%
- inhibition at 7 g/ha [7]: 95%
- inhibition at 7 g/ha [8]: 100%
- inhibition at 7 g/ha (rice (Oryza sativa L.)): 70%
- inhibition at 7 g/ha [9]: 100%
- inhibition at 7 g/ha (wheat (Triticum spp.)): 0%
- inhibition at 7 g/ha (corn (Zea mays L.) [10]): 0%
- inhibition at 7 g/ha [11]: 95%
- inhibition at 7 g/ha [12]: 100%
- inhibition at 7 g/ha [13]: 60%
